Results on 79 molecules are retold here after article PMC12040169 (PLOS Biology, 2025).

This data set is described as follows: in vitro. The following applies: human, hela cells, % viability.

Turning to `Cn1ccnc1CN1CCN(Cc2nccn2C)CC1` [CBK266206C], the viability at 28.5 h, 10 µM came out at 98.7%.
Take `c1coc(CNc2nccnc2-c2cccs2)c1` [CBK036618]: the viability at 28.5 h, 10 µM amounted to 85.5%.
For the molecule `O=C(Cc1cccs1)Nc1cccc(C(=O)Nc2cccc(C(=O)O)c2)c1` [CBK268509], the viability at 28.5 h, 10 µM is 105%.
The value for `Cc1cc(NS(=O)(=O)c2cc(C(F)(F)F)cc(C(F)(F)F)c2)n(C)n1` [CBK067261] was 105%; that for `N#CCCCN1CCC(Oc2nccnc2OC2CCCCC2)CC1` [CBK082871T] was 101%; that for `COC(=O)CNC(=O)C1CC(=O)N(c2ccccc2Br)C1` (stereo not shown) [CBK296672] was 97.1%.
The result for `O=C(CCN1CCN(CCO)CC1)N1c2ccccc2Sc2ccc(C(F)(F)F)cc21` [CBK278218C] reads 96.4%.
`O=C1/C(=C/c2ccc3c(c2)OCO3)SC(=S)N1CCCC(=O)N1CCCc2ccccc21` [CBK264676]: the viability at 28.5 h, 10 µM amounted to 98.2%.
The value for `CN(C)/C=N/c1nc2c(ccn2C2CC(O)C(CO)O2)c(=O)[nH]1` (stereo not shown) [CBK201276] was 107%; that for `CCOc1c(CNCCN2CCOCC2)cccc1OC` [CBK278182C] was 103%; that for `O=C(CO)N1CC2(CCN(Cc3cc(=O)[nH]c(=O)[nH]3)CC2)c2ccccc21` [CBK131510] was 106%.
The result for `COc1ccc([C@]23CN(C)C[C@H]2CCN(C(=O)Nc2ccc(Cl)c(F)c2)C3)cc1OC` [CBK081140T] reads 98.3%.
For `CSCCN1CCC(Oc2nccnc2OC2CCCCC2)CC1` [CBK082873T], the viability at 28.5 h, 10 µM was determined as 97%.
Consider `Cc1ccc(NC(=O)CSc2cnn[nH]2)cc1` [CBK270136], for which the viability at 28.5 h, 10 µM stood at 86.2%.
For `Cc1ccc(S(=O)(=O)N2CCOCC2)cc1C(=O)NCc1ccco1` [CBK269677], the viability at 28.5 h, 10 µM was found to be 102%.
For `Fc1cccc(-c2nccnc2NCCc2c[nH]c3ccccc23)c1` [CBK036861], the viability at 28.5 h, 10 µM amounted to 96.7%.
For `Cc1ccccc1Nc1nnc(-c2ccc(C(=O)NCCO)cc2)c2ccccc12` [CBK263743], the viability at 28.5 h, 10 µM turned out to be 86.4%.
As for `C=Cn1ncc(CN2CCCC(O)(c3ccc(F)cc3)CC2)c1C` (stereo not shown) [CBK284837], the viability at 28.5 h, 10 µM turned out to be 89.3%.
The result for `COc1cccc(OCCOc2nsnc2N2CCNCC2)c1` [CBK200007] reads 110%; that for `CN(C(=O)C1CCN(C(=O)c2ccoc2)CC1)C(c1ccc(F)cc1)c1ccccn1` (stereo not shown) [CBK060206], 91.5%; that for `Cc1nccn1CC1CCCN(Cc2nc3ccccc3n2C)C1` (stereo not shown) [CBK281975], 110%.
The value for `CNC(=O)C1(Cc2ccc(-c3ccccc3)cc2)CCN(C(=O)Cc2ccccc2)CC1` [CBK285764] was 103%; that for `O=C(O)CC(Cc1ccc(Br)cc1)C(=O)Nc1ccccc1` (stereo not shown) [CBK262714] was 96.2%; that for `C=CCN(C)C(=O)[C@H]1C[C@@H](O)[C@H](O)[C@@H]2N=C(Nc3ccc(Cl)cc3)S[C@@H]21` [CBK288946] was 87%.
The value for `O=C1CC(SCc2nc3ccccc3[nH]2)C(=O)N1c1ccccc1Cl` (stereo not shown) [CBK266702] was 94.7%.
In the case of `CCC(C(=O)O)c1ccc(-n2sc3ccccc3c2=O)cc1` (stereo not shown) [CBK011773], the viability at 28.5 h, 10 µM worked out at 105%.
With `Cc1ccn2c(=O)cc(COC(=O)c3sc4nc(C)cc(C)c4c3N)nc2c1` [CBK297783], the viability at 28.5 h, 10 µM was determined as 93.3%.
In the case of `CCN1C(=O)C2(CC(=O)N(CCOC)C2=O)c2cc(Cl)ccc21` (stereo not shown) [CBK075244], the viability at 28.5 h, 10 µM turned out to be 121%.
The result for `O=C(Cn1ccnc1)N1CCCCC1c1nc2ccccc2[nH]1` (stereo not shown) [CBK283936] reads 107%; that for `O=S(=O)(NCCSCc1c(Cl)cccc1Cl)c1ccc(Cl)cc1` [CBK265304], 91.2%.
The result for `Cc1ccc2c(c1)C(=O)CC1(CCN(C(=O)C3CCCC3)CC1)O2` [CBK283718] reads 85%; that for `O=C(Cc1c[nH]c2ccccc12)NC(Cc1ccccc1)C(=O)O` (stereo not shown) [CBK286770], 120%.
Turning to `CCN(Cc1ccccc1)C(=O)NCc1cnc(C)cn1` [CBK155218], the viability at 28.5 h, 10 µM came to 107%.
The value for `Cc1cc(C(=O)N2CCc3c(sc4ncnc(N)c34)C2)on1` [CBK306067] was 85.1%; that for `O=C(O)CCCn1cc(NC(=O)c2c(F)cccc2F)cn1` [CBK269941] was 86.6%.
For the molecule `CCc1cc2c(=O)c(-c3nc4ccccc4n3C)c(C)oc2c(CN2CCOCC2)c1O` [CBK262124], the viability at 28.5 h, 10 µM was found to be 94.1%.
The value for `CC(C)S(=O)(=O)N1CCC(C(=O)NC(c2ccccc2)c2ccc3ccccc3n2)CC1` (stereo not shown) [CBK059676] was 94.1%.
The result for `CSc1ccc([C@H]2[C@H](C(=O)O)CC(=O)N2Cc2ccccc2)cc1` [CBK286934] reads 91.7%.
The value for `COC(=O)[C@H]1CN(C(=O)c2cccs2)C[C@@H]1c1ccccc1F` [CBK283775] was 87.4%.
On to `COc1ccc(-c2nn(-c3ccccc3)cc2C(=O)Nc2ccc(C(=O)O)cc2)cc1OC` [CBK296112], for which the viability at 28.5 h, 10 µM is 95%.
For `Cc1ccccc1CN(C)C(C)C(=O)Nc1ccc(S(N)(=O)=O)cc1` (stereo not shown) [CBK304589], the viability at 28.5 h, 10 µM is 91.7%.
The value for `CN1CCN(CCC(=O)Nc2ccc3c(c2)CCC3)CC1` [CBK264197] was 95.3%; that for `CC(=O)c1ccc(-c2ccc3ccc(N)nc3n2)cc1` [CBK061862] was 84.4%; that for `CC(=O)N1CCC(C(=O)Nc2cnc(-c3ccc(F)cc3)c(-c3ccco3)n2)CC1` [CBK037038] was 104%.
The value for `COc1ccc(CCNCC2OCCCc3cc(OC)c(OC)cc32)cc1OC` (stereo not shown) [CBK012466C] was 94%; that for `Cc1[nH]c2ccc(Cl)cc2c1CC(=O)N(C)CCN(C)C` [CBK282700] was 95.5%; that for `CCOc1ccccc1-c1ccccc1NC(=O)c1ccc(-n2nc(C)cc2C)cc1` [CBK285845] was 54.1%.
The value for `CN(C(=O)C12CCOCC1CN(c1nccnc1C#N)C2)C1CCCC1` (stereo not shown) [CBK304244] was 93.6%.
On to `O=C(Nc1ccncc1)OCCc1cccnc1` [CBK200125], for which the viability at 28.5 h, 10 µM was determined as 94.2%.
The value for `Cc1nnc(SCC(=O)Nn2c(-c3ccccc3)nc3ccccc3c2=O)[nH]1` [CBK268841] was 86.8%.
As to `Cn1c(=O)ccn([C@@H]2O[C@H](CO)[C@H](O)C2O)c1=O` (stereo partly shown) [CBK201281], the viability at 28.5 h, 10 µM came out at 104%.
The value for `O=C(O)c1cccc(-n2ncc(-c3ccsc3)n2)c1` [CBK112859] was 100%; that for `CCCCN(C)c1nccnc1-c1cccc(O)c1` [CBK037652] was 99%; that for `Cn1c(SCC(=O)c2ccc(F)cc2)ncc(C(=O)Nc2ccccc2)c1=O` [CBK287672] was 111%.
As for `COc1ccc(C(C)C)cc1-c1nc2ncccc2cc1N` [CBK067614], the viability at 28.5 h, 10 µM amounted to 95.8%.
The value for `COc1cccc(NC(=O)c2cc3ccccc3o/c2=N\O)c1` [CBK288387] was 86%.
`CSc1nnc(NS(=O)(=O)c2ccccc2C)s1` [CBK144918]: the viability at 28.5 h, 10 µM turned out to be 97.4%.
The value for `CC(C)(C)c1ccc(S(=O)(=O)N2CCCC[C@H]2CCOC(=O)c2ncccc2C(=O)O)cc1` [CBK200066] was 98.7%; that for `O=c1[nH]c(/C=C/c2cc(Br)ccc2OCc2cccc3ccccc23)c([N+](=O)[O-])c(=O)[nH]1` [CBK268052] was 86.3%; that for `CCP(CC)c1ccc(C(=O)O)cc1` [CBK019342B] was 91.1%.
Regarding `CCN(CC)CCOC(=O)C1(c2ccccc2)CCOc2ccccc21` (stereo not shown) [CBK009850C], the viability at 28.5 h, 10 µM was 95.6%.
The result for `Cn1cnc2ccc(NC(=O)CC3CCN(C(=O)CC4CCCCC4)CC3)cc21` [CBK285961] reads 84.1%; that for `CC(C)(C)OC(=O)NCc1ccc(CNCc2ccc(-c3ccccc3)cc2)cc1` [CBK056706], 96.8%; that for `Cn1c(=O)n(CC(=O)NC2CC2)c2cccnc21` [CBK104297], 98.7%.
The value for `CC(=O)N1CCc2c([nH]c3ccccc23)C12CCCN(CCC#N)C2` (stereo not shown) [CBK039665] was 91.6%; that for `NS(=O)(=O)c1ccc(CCNC2CC(=O)N(CCc3ccccc3)C2=O)cc1` (stereo not shown) [CBK263502] was 93.4%; that for `CCOC(=O)c1cn(CC)c2cc(F)c(OCC)cc2c1=O` [CBK307139] was 87.8%.
Consider `O=C(c1ccccc1)N1CCCC(c2nccnc2-c2cccc(C(F)(F)F)c2)C1` (stereo not shown) [CBK286218], for which the viability at 28.5 h, 10 µM was determined as 99.9%.
Consider `COCCNc1nc2c([nH]1)c(=O)n(C)c(=O)n2C` [CBK288104], for which the viability at 28.5 h, 10 µM is 90.3%.
In the case of `CC(C)(C)c1nnc(NCC2CCCCC2)s1` [CBK075043], the viability at 28.5 h, 10 µM came to 101%.
As for `CCOC(=O)C1CCN(C(=O)Nc2cc(C)on2)CC1` [CBK306280], the viability at 28.5 h, 10 µM was found to be 88.5%.
The value for `CCN1CCN(c2ccc(NC(=O)c3cccnc3)cc2Cl)CC1` [CBK266629C] was 97.9%.
For the molecule `CN(CC(=O)Nc1cnc(-c2ccc(F)cc2)c(-c2ccco2)n1)S(=O)(=O)c1ccccc1` [CBK037214], the viability at 28.5 h, 10 µM was found to be 100%.
The value for `O=C(/C=C/c1cccnc1)NCc1ccc(OC2CCNCC2)cc1` [CBK038945T] was 88.7%.
`CCSc1nnc(-c2ccc([N+](=O)[O-])cc2)n1CC(C)C` [CBK076724T]: the viability at 28.5 h, 10 µM is 108%.
The value for `CC(/C=C/c1ccccc1)=N\NC(=O)C(C)Oc1ccc(Br)cc1` (stereo not shown) [CBK261212] was 99.7%; that for `CCn1c(C)nc2cc(NC(=O)CC3CCCCO3)ccc21` (stereo not shown) [CBK281859] was 98.2%.
The result for `CCN(CC)c1ccc(C(=O)Cn2c(=O)n(S(=O)(=O)c3ccc4ccccc4c3)c3ccccc32)cc1` [CBK106505] reads 88.9%.
`COCCc1noc(CC2CCN(c3ccc(Cl)c(C#N)n3)CC2)n1` [CBK304177]: the viability at 28.5 h, 10 µM was 97.5%.

One may read the viability as a read-out of living cells in per cent, often relative to untreated cells.
